Consider 2 compounds from ChEMBL document CHEMBL4007394, “Type I DNA Topoisomerases” (J Med Chem, 2017).

The target in assay [1] is Bifunctional 3'-5' exonuclease/ATP-dependent helicase WRN (Homo sapiens, UniProt Q14191). Kind of assay: Inhibition of recombinant WRN (unknown origin) helicase activity expressed in baculovirus expression system using forked duplex DNA as substrate after 15 mins by polyacrylamide gel electrophoresis.
Assay [2] can be described thus: Inhibition of recombinant Streptococcus pneumoniae R6 topoisomerase-1 expressed in Escherichia coli assessed as reduction in enzyme-catalyzed relaxation of supercoiled pBR322 DNA preincubated for 10 mins by ethidium bromide staining based electrophoresis.

Bifunctional 3'-5' exonuclease/ATP-dependent helicase WRN, sequence (Q14191 whole entry): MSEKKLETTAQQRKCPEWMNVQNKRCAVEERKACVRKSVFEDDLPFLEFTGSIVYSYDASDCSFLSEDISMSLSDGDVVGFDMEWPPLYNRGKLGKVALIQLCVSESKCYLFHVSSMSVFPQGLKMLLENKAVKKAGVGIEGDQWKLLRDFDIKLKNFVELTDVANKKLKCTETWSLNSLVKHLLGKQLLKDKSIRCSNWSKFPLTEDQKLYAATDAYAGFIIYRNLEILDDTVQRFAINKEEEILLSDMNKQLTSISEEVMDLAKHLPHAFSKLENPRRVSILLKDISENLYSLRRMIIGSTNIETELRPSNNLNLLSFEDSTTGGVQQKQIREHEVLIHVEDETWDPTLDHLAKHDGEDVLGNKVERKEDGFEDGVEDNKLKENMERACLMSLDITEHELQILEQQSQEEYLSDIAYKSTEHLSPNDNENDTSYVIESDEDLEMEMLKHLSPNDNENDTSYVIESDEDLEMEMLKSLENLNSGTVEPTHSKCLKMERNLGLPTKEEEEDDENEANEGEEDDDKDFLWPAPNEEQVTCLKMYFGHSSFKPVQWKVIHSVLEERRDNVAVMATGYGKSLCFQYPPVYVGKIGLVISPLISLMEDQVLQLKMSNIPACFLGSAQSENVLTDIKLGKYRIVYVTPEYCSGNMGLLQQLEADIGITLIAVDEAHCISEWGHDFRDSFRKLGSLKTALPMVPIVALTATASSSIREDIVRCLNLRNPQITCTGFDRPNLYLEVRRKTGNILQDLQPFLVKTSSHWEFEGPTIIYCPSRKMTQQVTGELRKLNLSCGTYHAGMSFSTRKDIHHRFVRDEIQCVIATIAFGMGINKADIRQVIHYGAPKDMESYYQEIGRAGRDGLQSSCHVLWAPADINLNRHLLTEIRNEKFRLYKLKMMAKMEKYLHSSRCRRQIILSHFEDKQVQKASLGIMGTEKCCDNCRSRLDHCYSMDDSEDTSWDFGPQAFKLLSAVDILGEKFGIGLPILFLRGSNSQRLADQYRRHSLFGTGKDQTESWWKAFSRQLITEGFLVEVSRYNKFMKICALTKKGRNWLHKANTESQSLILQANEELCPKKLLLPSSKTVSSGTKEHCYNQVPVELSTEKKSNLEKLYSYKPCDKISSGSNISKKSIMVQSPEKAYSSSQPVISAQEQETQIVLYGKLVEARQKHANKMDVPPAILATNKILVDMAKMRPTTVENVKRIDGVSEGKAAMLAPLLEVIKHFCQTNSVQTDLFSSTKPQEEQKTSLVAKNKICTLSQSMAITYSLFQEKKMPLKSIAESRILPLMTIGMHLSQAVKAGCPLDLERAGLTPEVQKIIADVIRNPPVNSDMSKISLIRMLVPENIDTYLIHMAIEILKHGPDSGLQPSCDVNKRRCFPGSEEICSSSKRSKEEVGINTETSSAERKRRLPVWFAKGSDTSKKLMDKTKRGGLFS

For `CCC(=O)OCN1C(=O)C=CC1=O`, the IC50 (as a rule, the point on the concentration scale where inhibition reaches its midpoint) in assay [1] is 3 µM.

In the case of `CNCCc1cc2c(c3c1ccc1cc4c(cc13)OCO4)OCO2`, in assay [2], the concentration for half-maximal inhibition (IC50) is 17 µM.
